Measurements published in article PMC9917023, “Stabilization of Monomeric Tau Protein by All D-Enantiomeric Peptide Ligands as Therapeutic Strategy for Alzheimer’s Disease and Other Tauopathies” (International Journal of Molecular Sciences, 2023).

Tested on: brain endothelial cells (RBMVEC) and astroglial cells (CTX TNA2)
Experimental: Each peptide was tested at different time points in triplicate next to an unseeded negative control (“Empty”) and quantitatively analyzed via HPLC using a calibration curve to determine the concentration of the peptide in the receiving chamber at each point in time (Figure 11). From these values, the volume of each chamber, and the respective time, a Papp permeability coefficient in cm²/s was calculated for each substance to represent its ability to cross the in vitro blood–brain barrier model.
An amount equaling 1 mg/mL TF2D-5 (A) or TF2D-5a (B) was added to an insert that was seeded and covered with endothelial and astroglial cells, representing the in vitro blood–brain barrier, or an empty insert serving as a control. After different time points, samples were taken and analyzed by quantitative HPLC analysis. Data given as mean ± SD out of three independent replicates.
Brain endothelial cells from rats and astroglial cells were used to cultivate the different sides of the porous membrane.
Brain endothelial cells from rats (RBMVEC, Cell Applications Inc., R840-05a, San Diego, CA, USA) were cultivated in Complete Classic medium (Cell Systems, Kirkland, WA, USA, 4Z0-500), and rat astroglial cells (CTX TNA2, ATCC, CRL-2006) were cultivated in Complete Classic medium (Cell Systems, Kirkland, WA, USA, 4Z0-500). The cells were allowed to grow in a humidified incubator with 5% CO2 at 37 °C and a maximum of 20 passages. The cells were passaged every 3 to 5 days, according to their confluence.
In order to set up the in vitro BBB model, the astroglial cells were seeded at a density of 600.000 cells/cm² on the outer (basolateral, “brain”) side of an insert with a porous membrane (Corning Transwell polycarbonate membrane cell culture inserts, CLS3415, 3 µM pore size) and allowed to grow/adhere overnight in the Complete Classic medium. The next day, brain endothelial cells were seeded at a density of 600.000 cells/cm² on the inner side (apical, “blood”) of the corresponding membrane. The seeded inserts were then cultivated to grow to full confluence over a period of 5 to 7 days, with the medium renewed daily. […] Prior to this, TEER (transendothelial electrical resistance values) were measured in each well to ensure the integrity of the in vitro BBB. At 0, 30, 60, 90, 120, 150, 180, and 240 min, 50 µL of the medium out of the outer chamber was taken and analyzed by HPLC. This 50 µL would then be replaced by the same amount of fresh serum-free medium to keep the fluid levels equal across both chambers. This slight dilution was factored into the following calculations. Furthermore, a dilution series of each reagent was analyzed alongside the samples as a calibration to quantify the analysis. […] The Papp values were calculated as follows (higher is better): Papp =(V/A∗C)∗(Dc/Dt)

Row | Structure (SMILES) | Papp permeability coefficient
1 | Cn1c(=O)c2c(ncn2C)n(C)c1=O [Caffeine, reference compound] | 31.8 ×10⁻⁶ cm/s
2 | O=C1OC2(c3ccc(O)cc3Oc3cc(O)ccc32)c2ccccc21 [Fluorescein, reference compound] | 0.886 ×10⁻⁶ cm/s
